Measured values taken from article PMC11579512, “Deoxybouvardin-glucoside induces apoptosis in non-small cell lung cancer cells by targeting EGFR/MET and AKT signaling pathway” (EXCLI Journal, 2024).

Key:
HCC827 cells [1] = experiment: Intracellular ROS (Muse Oxidative Stress Kit), HCC827; type: cell-based, human; conditions: 48 h, control 7.32 %
Experimental: (§1) HaCaT cells were grown in DMEM, whereas HCC827 and HCC827GR cells were grown in RPMI 1640. All culture media were supplemented with FBS (10 %) and P/S (1 %), and the cells were grown at 37 °C in 5 % CO2.
The levels of intracellular ROS were measured using a Muse™ Oxidative Stress Kit (MCH100111, Merck Millipore) in accordance with the manufacturer's instructions. The cells were incubated with a Muse™ Oxidative Stress Reagent working solution in the dark at 37 °C for 30 min. Intracellular ROS generation was measured using a Muse™ Cell Analyzer.

HCC827 cells [2] = experiment: Multi-caspase assay, HCC827; type: cell-based, human; design: Caspase+ cells / Total Caspase+ cells / dead cells (multi-caspase assay) / Live cells (multi-caspase assay): unit not given here; conditions: for cells with activated caspases: 48 h, background 6.52 %
Experimental: as §1

[3] = HCC827, DBG 3 nM, mean of samples 1-3
[4] = HCC827, DBG 6 nM, mean of samples 1-3
[5] = HCC827, DBG 12 nM, mean of samples 1-3

Question: For `COc1ccc(C[C@H]2C(=O)N[C@@H](C)C(=O)N(C)[C@H]3Cc4ccc(cc4)Oc4cc(ccc4O[C@@H]4O[C@H](CO)[C@@H](O)[C@H](O)[C@H]4O)C[C@@H](C(=O)N[C@H](C)C(=O)N[C@@H](C)C(=O)N2C)N(C)C3=O)cc1` [DBG, deoxybouvardin glucoside], which ROS level (HCC827 cells [1]; DBG 3 nM) is on record?
Answer: 18.40%

Question: And the ROS level (HCC827 cells [1]; DBG 6 nM)?
Answer: 47.32%

Question: And the ROS level (HCC827 cells [1]; DBG 12 nM)?
Answer: 70.22%

Question: What about the “cells with activated caspases” value (HCC827 cells [2]; DBG 3 nM) of the same compound?
Answer: 16.23%

Question: And the “cells with activated caspases” value (HCC827 cells [2]; DBG 6 nM)?
Answer: 24.10%

Question: And the “cells with activated caspases” value (HCC827 cells [2]; DBG 12 nM)?
Answer: 25.94%

Question: What about the “Caspase+ cells” value (HCC827 cells [2]; [3]) of the same compound?
Answer: 4.43

Question: What about the “Caspase+/dead cells” value (HCC827 cells [2]; [3]) of the same compound?
Answer: 11.80

Question: What about the “Live cells (multi-caspase assay)” value (HCC827 cells [2]; [3]) of the same compound?
Answer: 83.72

Question: What about the “Total Caspase+ cells” value (HCC827 cells [2]; [3]) of the same compound?
Answer: 16.23

Question: And the “dead cells (multi-caspase assay)” value (HCC827 cells [2]; [3])?
Answer: 0.05

Question: And the “Caspase+ cells” value (HCC827 cells [2]; HCC827, DBG 3 nM, sample 1)?
Answer: 5.19

Question: And the “Caspase+/dead cells” value (HCC827 cells [2]; HCC827, DBG 3 nM, sample 1)?
Answer: 10.83

Question: And the “Live cells (multi-caspase assay)” value (HCC827 cells [2]; HCC827, DBG 3 nM, sample 1)?
Answer: 83.88

Question: What about the “Total Caspase+ cells” value (HCC827 cells [2]; HCC827, DBG 3 nM, sample 1) of the same compound?
Answer: 16.02

Question: What about the “dead cells (multi-caspase assay)” value (HCC827 cells [2]; HCC827, DBG 3 nM, sample 1) of the same compound?
Answer: 0.10

Question: And the “Caspase+ cells” value (HCC827 cells [2]; HCC827, DBG 3 nM, sample 2)?
Answer: 3.91

Question: What about the “Caspase+/dead cells” value (HCC827 cells [2]; HCC827, DBG 3 nM, sample 2) of the same compound?
Answer: 12.71

Question: What about the “Live cells (multi-caspase assay)” value (HCC827 cells [2]; HCC827, DBG 3 nM, sample 2) of the same compound?
Answer: 83.38

Question: What about the “Total Caspase+ cells” value (HCC827 cells [2]; HCC827, DBG 3 nM, sample 2) of the same compound?
Answer: 16.62

Question: And the “dead cells (multi-caspase assay)” value (HCC827 cells [2]; HCC827, DBG 3 nM, sample 2)?
Answer: 0.00

Question: And the “Caspase+ cells” value (HCC827 cells [2]; HCC827, DBG 3 nM, sample 3)?
Answer: 4.20

Question: And the “Caspase+/dead cells” value (HCC827 cells [2]; HCC827, DBG 3 nM, sample 3)?
Answer: 11.85

Question: And the “Live cells (multi-caspase assay)” value (HCC827 cells [2]; HCC827, DBG 3 nM, sample 3)?
Answer: 83.89

Question: What about the “Total Caspase+ cells” value (HCC827 cells [2]; HCC827, DBG 3 nM, sample 3) of the same compound?
Answer: 16.06

Question: And the “dead cells (multi-caspase assay)” value (HCC827 cells [2]; HCC827, DBG 3 nM, sample 3)?
Answer: 0.05

Question: And the “Caspase+ cells” value (HCC827 cells [2]; [4])?
Answer: 9.84

Question: And the “Caspase+/dead cells” value (HCC827 cells [2]; [4])?
Answer: 14.26

Question: And the “Live cells (multi-caspase assay)” value (HCC827 cells [2]; [4])?
Answer: 75.85

Question: What about the “Total Caspase+ cells” value (HCC827 cells [2]; [4]) of the same compound?
Answer: 24.10

Question: What about the “dead cells (multi-caspase assay)” value (HCC827 cells [2]; [4]) of the same compound?
Answer: 0.00

Question: What about the “Caspase+ cells” value (HCC827 cells [2]; HCC827, DBG 6 nM, sample 1) of the same compound?
Answer: 10.64

Question: What about the “Caspase+/dead cells” value (HCC827 cells [2]; HCC827, DBG 6 nM, sample 1) of the same compound?
Answer: 13.33

Question: And the “Live cells (multi-caspase assay)” value (HCC827 cells [2]; HCC827, DBG 6 nM, sample 1)?
Answer: 76.03

Question: And the “Total Caspase+ cells” value (HCC827 cells [2]; HCC827, DBG 6 nM, sample 1)?
Answer: 23.97

Question: And the “dead cells (multi-caspase assay)” value (HCC827 cells [2]; HCC827, DBG 6 nM, sample 1)?
Answer: 0.00

Question: What about the “Caspase+ cells” value (HCC827 cells [2]; HCC827, DBG 6 nM, sample 2) of the same compound?
Answer: 9.67

Question: What about the “Caspase+/dead cells” value (HCC827 cells [2]; HCC827, DBG 6 nM, sample 2) of the same compound?
Answer: 14.53

Question: What about the “Live cells (multi-caspase assay)” value (HCC827 cells [2]; HCC827, DBG 6 nM, sample 2) of the same compound?
Answer: 75.65

Question: What about the “Total Caspase+ cells” value (HCC827 cells [2]; HCC827, DBG 6 nM, sample 2) of the same compound?
Answer: 24.20

Question: What about the “dead cells (multi-caspase assay)” value (HCC827 cells [2]; HCC827, DBG 6 nM, sample 2) of the same compound?
Answer: 0.00

Question: And the “Caspase+ cells” value (HCC827 cells [2]; HCC827, DBG 6 nM, sample 3)?
Answer: 9.21

Question: And the “Caspase+/dead cells” value (HCC827 cells [2]; HCC827, DBG 6 nM, sample 3)?
Answer: 14.92

Question: And the “Live cells (multi-caspase assay)” value (HCC827 cells [2]; HCC827, DBG 6 nM, sample 3)?
Answer: 75.87

Question: And the “Total Caspase+ cells” value (HCC827 cells [2]; HCC827, DBG 6 nM, sample 3)?
Answer: 24.13

Question: What about the “dead cells (multi-caspase assay)” value (HCC827 cells [2]; HCC827, DBG 6 nM, sample 3) of the same compound?
Answer: 0.00

Question: And the “Caspase+ cells” value (HCC827 cells [2]; [5])?
Answer: 16.76

Question: And the “Caspase+/dead cells” value (HCC827 cells [2]; [5])?
Answer: 9.18

Question: And the “Live cells (multi-caspase assay)” value (HCC827 cells [2]; [5])?
Answer: 73.91

Question: And the “Total Caspase+ cells” value (HCC827 cells [2]; [5])?
Answer: 25.94

Question: And the “dead cells (multi-caspase assay)” value (HCC827 cells [2]; [5])?
Answer: 0.08

Question: What about the “Caspase+ cells” value (HCC827 cells [2]; HCC827, DBG 12 nM, sample 1) of the same compound?
Answer: 17.38

Question: What about the “Caspase+/dead cells” value (HCC827 cells [2]; HCC827, DBG 12 nM, sample 1) of the same compound?
Answer: 9.37

Question: And the “Live cells (multi-caspase assay)” value (HCC827 cells [2]; HCC827, DBG 12 nM, sample 1)?
Answer: 73.00

Question: What about the “Total Caspase+ cells” value (HCC827 cells [2]; HCC827, DBG 12 nM, sample 1) of the same compound?
Answer: 26.75

Question: And the “dead cells (multi-caspase assay)” value (HCC827 cells [2]; HCC827, DBG 12 nM, sample 1)?
Answer: 0.05

Question: And the “Caspase+ cells” value (HCC827 cells [2]; HCC827, DBG 12 nM, sample 2)?
Answer: 16.62

Question: And the “Caspase+/dead cells” value (HCC827 cells [2]; HCC827, DBG 12 nM, sample 2)?
Answer: 9.35

Question: And the “Live cells (multi-caspase assay)” value (HCC827 cells [2]; HCC827, DBG 12 nM, sample 2)?
Answer: 73.88

Question: What about the “Total Caspase+ cells” value (HCC827 cells [2]; HCC827, DBG 12 nM, sample 2) of the same compound?
Answer: 25.97

Question: And the “dead cells (multi-caspase assay)” value (HCC827 cells [2]; HCC827, DBG 12 nM, sample 2)?
Answer: 0.15

Question: What about the “Caspase+ cells” value (HCC827 cells [2]; HCC827, DBG 12 nM, sample 3) of the same compound?
Answer: 16.27

Question: And the “Caspase+/dead cells” value (HCC827 cells [2]; HCC827, DBG 12 nM, sample 3)?
Answer: 8.82
